# Laboratory results from PubChem BioAssay AID2060336 (Molecular Pharmacology Branch, DTP, NCI, 2025).
# Test system: 958767-090-R-J1-PDC spheroid growth
# Assay: Anticancer human tumor 958767-090-R-J1-PDC patient-derived head and neck squamous carcinoma cell line growth inhibition [IpAb]
# Conditions: spheroids with HUVEC and MSC; for IC50: curve of first compound; for viability, T/C: stronger effect = lower value
# Text: Combinatorial screen of targeted agents with ipatasertib and abemaciclib in multi-cell type tumor spheroids
# A high-throughput screen of multi-cell type tumor spheroids was designed to identify active combinations of targeted small molecules and ipatasertib or abemaciclib. Complex spheroids include a stromal component modeled by human endothelial cells (HUVEC) and fibroblasts modeled by human mesenchymal stem cells (MSCs). The concentration ranges selected for each drug and investigational agent were based upon clinically achievable concentrations if the clinical Cmax of the agent was known.
# Compounds. The drugs and investigational agents: ipatasertib (NSC767898), abemaciclib(NSC768073), selumetinib (NSC741078), trametinib (758246), adavosertib (NSC754352), everolimus (NSC733504), sapanisertib (NSC764658), vemurafenib (NSC761431), venetoclax (NSC766270), copanlisib (NSC809693), apelisib (NSC765974), palbociblib (NSC758247), vemurafenib (NSC761431), dabrafenib (NSC764134), ravoxertinib (NSC781343), BMS-387032 (NSC767048), sotorasib (NSC818433), talazoparib (NSC767125) and afursertib (NSC778305), were obtained from the National Cancer Institute (NCI) Developmental Therapeutics Program Chemical Repository. The FDA-approved anticancer drug set is available from the NCI Developmental Therapeutics Program. […] The stock solutions were prepared in dimethyl sulfoxide (DMSO, Sigma-Aldrich, St. Louis, MO, cat. D2650) at 800-fold the tested concentration and stored at -70 degrees C prior to their use. All drugs and investigational agents were tested over a range starting from a high concentration at or near the clinical Cmax and decreasing in half-log increments. If the clinical Cmax for an agent had not been determined, the highest concentration tested was 10 microM.
# NCI60 Cell Culture. NCI60 cell lines were obtained from the NCI Developmental Therapeutics Program Tumor Repository. For each lot of cells, the Repository performed Applied Biosystems AmpFLSTR Identifiler testing with PCR amplification to confirm consistency with the published Identifier STR profile for each cell line. Cells were kept in continuous culture for no more than 20 passages. The optimal seeding densities for each of the cell lines at each time point assessed were determined prior to performing the concentration response studies. Briefly, the NCI60 human tumor lines were grown as monolayers in RPMI 1640 medium supplemented with 10% FBS and 2 mmol/L L-glutamine.
# An additional 9 lines were from the NCI60 cell line panel including MDA-MB-231 breast carcinoma, MDA-MB-468 breast carcinoma, MCF7 breast carcinoma, Hs578T breast carcinoma, MALME-3M melanoma, SK-MEL-2 melanoma, SK-OV-3 ovarian carcinoma, DU-145 prostate carcinoma, PC-3 prostate carcinoma, all cell lines along with major genetic alterations are listed on Table 2. Pooled donor human umbilical vein endothelial cells (HUVEC, Lonza, cat. CC-2519) and human mesenchymal stem cells (hMSC, Lonza, cat. PT-2501) were purchased from Lonza (Walkersville, MD).
# PDMR cell lines were grown in complete medium (DC medium): Dulbecco's modified Eagle's medium (DMEM)/F12 supplemented with 5% fetal bovine serum (FBS), 2 mM L-glutamine, 100 U/mL penicillin and 100 µg/ml streptomycin, 0.4 µg/ml hydrocortisone, 10 ng/ml epidermal growth factor (EGF) recombinant human protein, 24 µg/mL adenine, and 0.1 mg/mL primocin. During culture from frozen stock vials, PDMR cells were cultured in the same medium containing 10 µM Y-27632 (see Table 3). The PDCs were cultured in complete DMEM/F12 media without 10 microM Y-27632 dihydrochloride for at least two passages prior to the screen. The pooled donor HUVEC and hMSC were cultured in endothelial cell growth medium 2 (PromoCell, Heidelberg, Germany, cat. C-22011) and mesenchymal stem cell growth medium 2 (PromoCell, cat. C-28009), respectively. For all experiments, HUVEC and hMSC were used at passages </=5.
# […]
# 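Also: spheroids exposed to agents for 7 days.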
# 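For viability, T/C in this document: 100% = DMSO vehicle control wells.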
smiles,measurement,setting,value
C=CCn1c(=O)c2cnc(Nc3ccc(N4CCN(C)CC4)cc3)nc2n1-c1cccc(C(C)(C)O)n1 + CC(C)NCC(C(=O)N1CCN(c2ncnc3c2C(C)CC3O)CC1)c1ccc(Cl)cc1,IC50,second compound 0.1 µM,179 nM
same,IC50,second compound 0.316 µM,85 nM
same,IC50,second compound 1 µM,45.5 nM
same,IC50,second compound 3.16 µM,45.9 nM
same,IC50,second compound 10 µM,< 31.6 nM
same,"viability, T/C","second compound 0.1 µM, first compound 0.0316 µM",88.2%
same,"viability, T/C","second compound 0.1 µM, first compound 0.1 µM",65%
same,"viability, T/C","second compound 0.1 µM, first compound 0.316 µM",35%
same,"viability, T/C","second compound 0.1 µM, first compound 1 µM",25%
same,"viability, T/C","second compound 0.1 µM, first compound 3.16 µM",23.7%
same,"viability, T/C","second compound 0.1 µM, first compound 10 µM",19.6%
same,"viability, T/C","second compound 0.316 µM, first compound 0.0316 µM",64.1%
same,"viability, T/C","second compound 0.316 µM, first compound 0.1 µM",47.7%
same,"viability, T/C","second compound 0.316 µM, first compound 0.316 µM",24.2%
same,"viability, T/C","second compound 0.316 µM, first compound 1 µM",17%
same,"viability, T/C","second compound 0.316 µM, first compound 3.16 µM",17.8%
same,"viability, T/C","second compound 0.316 µM, first compound 10 µM",15.2%
same,"viability, T/C","second compound 1 µM, first compound 0.0316 µM",52.1%
same,"viability, T/C","second compound 1 µM, first compound 0.1 µM",45.4%
same,"viability, T/C","second compound 1 µM, first compound 0.316 µM",23.5%
same,"viability, T/C","second compound 1 µM, first compound 1 µM",15.6%
same,"viability, T/C","second compound 1 µM, first compound 3.16 µM",16.9%
same,"viability, T/C","second compound 1 µM, first compound 10 µM",13%
same,"viability, T/C","second compound 3.16 µM, first compound 0.0316 µM",55%
same,"viability, T/C","second compound 3.16 µM, first compound 0.1 µM",39.6%
same,"viability, T/C","second compound 3.16 µM, first compound 0.316 µM",22.2%
same,"viability, T/C","second compound 3.16 µM, first compound 1 µM",16.2%
same,"viability, T/C","second compound 3.16 µM, first compound 3.16 µM",14.8%
same,"viability, T/C","second compound 3.16 µM, first compound 10 µM",11.9%
same,"viability, T/C","second compound 10 µM, first compound 0.0316 µM",39.1%
same,"viability, T/C","second compound 10 µM, first compound 0.1 µM",32.4%
same,"viability, T/C","second compound 10 µM, first compound 0.316 µM",17.9%
same,"viability, T/C","second compound 10 µM, first compound 1 µM",13.9%
same,"viability, T/C","second compound 10 µM, first compound 3.16 µM",13.6%
same,"viability, T/C","second compound 10 µM, first compound 10 µM",7.78%
Cn1cnc2c(F)c(Nc3ccc(Br)cc3Cl)c(C(=O)NOCCO)cc21 + CC(C)NCC(C(=O)N1CCN(c2ncnc3c2C(C)CC3O)CC1)c1ccc(Cl)cc1,IC50,second compound 0.1 µM,18.2 nM
same,IC50,second compound 0.316 µM,< 9.49 nM
same,IC50,second compound 1 µM,< 9.49 nM
same,IC50,second compound 3.16 µM,< 9.49 nM
same,IC50,second compound 10 µM,< 9.49 nM
same,"viability, T/C","second compound 0.1 µM, first compound 0.00949 µM",62%
same,"viability, T/C","second compound 0.1 µM, first compound 0.03 µM",38.9%
same,"viability, T/C","second compound 0.1 µM, first compound 0.0949 µM",30.5%
same,"viability, T/C","second compound 0.1 µM, first compound 0.3 µM",20.8%
same,"viability, T/C","second compound 0.1 µM, first compound 0.949 µM",17.7%
same,"viability, T/C","second compound 0.1 µM, first compound 3 µM",9.06%
same,"viability, T/C","second compound 0.316 µM, first compound 0.00949 µM",36%
same,"viability, T/C","second compound 0.316 µM, first compound 0.03 µM",26.8%
same,"viability, T/C","second compound 0.316 µM, first compound 0.0949 µM",19.2%
same,"viability, T/C","second compound 0.316 µM, first compound 0.3 µM",14.3%
same,"viability, T/C","second compound 0.316 µM, first compound 0.949 µM",9.47%
same,"viability, T/C","second compound 0.316 µM, first compound 3 µM",3.29%
same,"viability, T/C","second compound 1 µM, first compound 0.00949 µM",28.1%
same,"viability, T/C","second compound 1 µM, first compound 0.03 µM",21.7%
same,"viability, T/C","second compound 1 µM, first compound 0.0949 µM",15.2%
same,"viability, T/C","second compound 1 µM, first compound 0.3 µM",10.1%
same,"viability, T/C","second compound 1 µM, first compound 0.949 µM",4.39%
same,"viability, T/C","second compound 1 µM, first compound 3 µM",1.34%
same,"viability, T/C","second compound 3.16 µM, first compound 0.00949 µM",30.4%
same,"viability, T/C","second compound 3.16 µM, first compound 0.03 µM",18.6%
same,"viability, T/C","second compound 3.16 µM, first compound 0.0949 µM",10.1%
same,"viability, T/C","second compound 3.16 µM, first compound 0.3 µM",6.15%
same,"viability, T/C","second compound 3.16 µM, first compound 0.949 µM",1.7%
same,"viability, T/C","second compound 3.16 µM, first compound 3 µM",0.65%
same,"viability, T/C","second compound 10 µM, first compound 0.00949 µM",21.7%
same,"viability, T/C","second compound 10 µM, first compound 0.03 µM",9.62%
same,"viability, T/C","second compound 10 µM, first compound 0.0949 µM",4.16%
same,"viability, T/C","second compound 10 µM, first compound 0.3 µM",1.43%
same,"viability, T/C","second compound 10 µM, first compound 0.949 µM",0.55%
same,"viability, T/C","second compound 10 µM, first compound 3 µM",0.67%
